# Key:
# restriction enzyme PstI [1] = assay: PstI cleavage reaction on a horizontal plate surface (DNA fragment III); format: biochemical; conditions: horizontal plates, 0.6 M trehalose vs none
# Description: Biotin-labeled DNA fragment III (Seq. ID No. 6, Scheme 4) was cleaved at the restriction enzyme PstI site on a horizontal streptavidin coated plate surface and the 104 by DNA fragment released was examined. To the DNA fragment III (500 ng) was admixed an equal volume of 2× binding buffer. The mixture was added to the wells of a plate that had been washed with 1× binding buffer and stirred and adsorbed while being gently vibrated for 15 minutes at room temperature. The supernatant was removed, washed three times with 1× binding buffer, and washed once with 1× PstI buffer. Two types of reaction solution (1× PstI buffer, 1× BSA restriction enzyme 40 units) were prepared: a trehalose (+) system to which D(+)-trehalose was added to a final concentration of 0.6 M, and a trehalose (−) system to which no trehalose was added. Each of the reaction solutions was added to wells that had been washed, and then reacted for three hours at 37° C. Cleavage was conducted with restriction enzyme. The supernatant containing the DNA fragments that had been released was recovered, reacted with proteinase K, treated with phenol chloroform, and precipitated from ethanol. The precipitate of DNA fragments obtained was dissolved in 1× TE (pH 7.5) and analyzed with Bioanalyzer DNA 1000 assay (Agilent Technologies).
# [2] = State of streptavidin bead reaction solution during enzymatic reaction; format: physicochemical; conditions: 0.6 M additive; extended / three hours restriction enzyme reaction
# Source text: Thus, with no nonuniformity in enzymatic activity, the various enzymatic reactions were promoted and the quantity of target DNA recovered increased.
# This was attributed to characteristics such as the viscosity and diffusing effect of trehalose or sorbitol.
# restriction enzyme PstI [3] = assay: PstI cleavage reactions with different distances from bead or plate surface to the DNA cleavage site; format: biochemical; conditions: 0.6 M trehalose vs none; cleavage site 20 bp, 50 bp, 100 bp from surface; beads and plates
# Description: Three biotin-labeled DNA fragments I, II, and III (Seq. ID Nos. 4 to 6, Scheme 4) were cleaved at their respective restriction enzyme PstI site and the size of the DNA fragments released was examined. Paramagnetic streptavidin beads were washed with the accessory 1× binding buffer and recovered with a magnetic stand to remove the supernatant. They were then suspended in identical buffer. To each of the three types of biotin-labeled DNA fragments (500 ng) was admixed an equal volume of 2× binding buffer, the bead solution was added, and the mixture was stirred gently for 15 minutes with top to bottom inversion and rotation to induce adsorption. The beads to which the sample had adsorbed were recovered with the magnetic stand, washed three times with 1× binding buffer, and washed one more time with 1× PstI buffer. […] The precipitate of DNA fragments obtained was dissolved in 1× TE (pH 7.5) and analyzed with Bioanalyzer DNA 1000 assay (Agilent Technologies).
# Three biotin-labeled DNA fragments I, II, and III (Seq. ID Nos. 4 to 6, Scheme 4) were cleaved at their respective restriction enzyme PstI site and the size of the DNA fragments released was examined. […] The precipitate of DNA fragments obtained was dissolved in 1× TE (pH 7.5) and analyzed with Bioanalyzer DNA 1000 assay (Agilent Technologies). […]
# [4] = test system: ligation enzymatic reaction solution of a SOLID system 2.0; assay: Sequencing reaction in a SOLID sequencing system; format: biochemical; conditions: 0.3 M trehalose vs none
# Description: D(+)-trehalose was added to the ligation enzymatic reaction solution of a SOLID system 2.0 and the effects were measured. The experiment was conducted at a final D(+)-trehalose concentration of 0.3 M. The noise to signal ratio (N/S ratio) of each cycle was employed for comparison. The N/S ratio was obtained by dividing the second brightest fluorescence intensity by the brightest fluorescence intensity.
# The D(+)-trehalose employed was D(+)-trehalose dihydrate (201-02253 reagent grade) (Wako). A SOLiD™ fragment library sequencing kit v2 (4400466) was employed for sequencing with the SOLID system (Applied Biosystems). The sample employed as a SOLiD™ DH10B fragment library control kit (4391889).
# Probe Mixes A and B and bridge probe, prepared with the reagents contained in a SOLiD™ fragment library sequence kit v2 (4400466) and adjusted to a D(+)-trehalose (90208 BioChemika, 99.5% (HPLC)) (Fluka) concentration of 1.7 M, were added to each sequence primer in the quantities indicated below.
# The operation was conducted according to the manufacturer's protocol following addition.
# restriction enzyme PstI [5] = assay: PstI cleavage reaction in solution (DNA fragment III); format: biochemical; conditions: normal reaction solution, with vs without 0.6 M trehalose; three hours
# Description: Biotin-labeled DNA fragment III (Seq. ID No. 6, Scheme 4) was cleaved at the restriction enzyme PstI site in solution and the 104 by DNA fragment that was released was examined. Two forms of reaction solution (DNA fragment III 500 ng, 1× PSTI buffer, 1× BSA, restriction enzyme 40 units) were prepared: a total of 50 uL trehalose (+) reaction solution to which D(+)-trehalose was added to a final concentration of 0.6 M, and a total of 50 uL trehalose (−) reaction solution, to which no trehalose was added. The reaction solutions were reacted for 3 hours at 37° C., a proteinase K reaction was conducted, phenol chloroform treatment was carried out, and precipitation from ethanol was conducted. The precipitate of the DNA fragment obtained was dissolved in 1× TE (pH 7.5) and analyzed with Bioanalyzer DNA 1000 assay (Agilent Technologies).
structure (smiles),measurement,setting,value
"OC[C@H]1O[C@H](O[C@H]2O[C@H](CO)[C@@H](O)[C@H](O)[C@H]2O)[C@H](O)[C@@H](O)[C@@H]1O [trehalose, D(+)-trehalose]",yield of released DNA fragment,restriction enzyme PstI [1],higher yield
same,uniformity of beads in the reaction solution,[2],maintaining better uniformity in the reaction solution
same,yield of DNA released by cleavage,restriction enzyme PstI [3],increase
same,noise to signal ratio (N/S ratio) with each cycle,[4],reduced the rise in noise
same,yield of released DNA fragment,restriction enzyme PstI [5],the same yield

# Reference: patent US20110059869A1, “Method for Increasing Enzymatic Reactivity” (RIKEN, priority 2008, published 2011)
